# Patent US20240051914A1, “THE HEXADECANE TROMETHAMINE COMPOUND, ITS SYNTHESIS METHOD AND ITS APPLICATION IN ANTITUMOR AND ANTIFUNGAL ASPECTS” (Wuxi No.2 People's Hospital, priority 2021, published 2024)
# What was measured:
# Type in all cases: cell-based
# MKN-45 = assay: Antitumor function detection, CCK-8 inhibition ratio; conditions: MKN-45 cells, 72 hours
# Method: (§1) Test Method: The logarithmic phase cells were seeded in 96-well plates with 3,000 cells per well/100 μl of density. After the cells were adhered, 100 μl of the test compounds with different concentrations were added. Design 6-8 concentration gradients. Set five parallel wells in per group and set the control group. After the compound and tumor cells were incubated for 72 hours, 10 μl of CCK-8 solution was added in per well. After the cells were incubated for 1-2 hours in the incubator, the optical density (OD) of per well was counted by Universal Microplate Spectrophotometer to calculate the inhibition ratio: inhibition ratio (IR %)=(1−TOD/COD)×100%, TOD: the mean OD of drug administration group, COD: the mean OD of solvent control. The dose-response curve was plotted in accordance to the drugs with different concentrations and the inhibition ratio of cells to obtain the Inhibitory concentration of drug (IC50). Test Method: The logarithmic phase cells were seeded in 96-well plates with 3,000 cells per well/100 l of density. After the cells were adhered, 100 l of the test compounds with different concentrations were added. Design 6-8 concentration gradients. Set five parallel wells in each group and set the control group. After the compound and tumor cells were incubated for 72 hours, 10 µl of CCK-8 solution was added in each well. After the cells were incubated for 1-2 hours in the incubator, the optical density (OD) of per well was counted by Universal Microplate Spectrophotometer to calculate the inhibition ratio: inhibition ratio (IR %)=(1−TOD/COD)×100%, TOD: the mean OD of drug administration group, COD: the mean OD of solvent control. The dose-response curve was plotted in accordance to the drugs with different concentrations and the inhibition ratio of cells to obtain the Inhibitory concentration of drug (IC50). Test Method: The logarithmic phase cells were seeded in 96-well plates with 3,000 cells per well/100 μl of density. After the cells were adhered, 100 μl of the test compounds with different concentrations were added. Design 6-8 concentration gradients. Set five parallel wells in each group and set the control group. After the compound and tumor cells were incubated for 72 hours, 10 µl of CCK-8 solution was added in each well. After the cells were incubated for 1-2 hours in the incubator, the optical density (OD) of per well was counted by Universal Microplate Spectrophotometer to calculate the inhibition ratio: inhibition ratio (IR %)=(1−TOD/COD)×100%, TOD: the mean OD of drug administration group, COD: the mean OD of solvent control. The dose-response curve was plotted in accordance to the drugs with different concentrations and the inhibition ratio of cells to obtain the Inhibitory concentration of drug (IC50). Test Method: The logarithmic phase cells were seeded in 96-well plates with 3,000 cells per well/100 μl of density. After the cells were adhered, 100 μl of the test compounds with different concentrations were added. Design 6-8 concentration gradients. Set five parallel wells in each group and set the control group. After the compound and tumor cells were incubated for 72 hours, 10 µl of CCK-8 solution was added in each well. After the cells were incubated for 1-2 hours in the incubator, the optical density (OD) of per well was counted by Universal Microplate Spectrophotometer to calculate the inhibition ratio: inhibition ratio (IR %)=(1−TOD/COD)×100%, TOD: the mean OD of drug administration group, COD: the mean OD of solvent control. The dose-response curve was plotted in accordance to the drugs with different concentrations and the inhibition ratio of cells to obtain the Inhibitory concentration of drug (IC50).
# [1] = system: gastric cancer cell HGC-27; assay: as above; conditions: HGC-27 cells; for The inhibition ratio (%): 72 hours, CCK-8
# Method: as §1
# AGS = assay: as above; conditions: AGS cells, 72 hours
# Method: as §1
# SGC-7901 = assay: as above; conditions: SGC-7901 cells, 72 hours
# Method: as §1
# [2] = system: Candida lusitaniae 340928; assay: Anti-fungal function detection, MIC by dilution in RPMI1640; conditions: Clavispora lusitaniae, Standard fungal strain Candida lusitaniae 340928, incubated for 35 and 24 h, read-out: Minimum Inhibitory Concentration, MIC
# Method: (§2) Test Method: The hexadecyl tromethamine hydrochloride salt solution was semi-diluted to five concentration gradients (100 μg/ml, 50 μg/ml, 25 μg/ml, 12.5 μg/ml and 6.25 μg/ml) by RPMI1640 fluid nutrient medium. 100 μl of every gradient solution was added in the 96-well plate for standby application. Standard fungal strain and clinical drug-resistant fungal strain in table 2 were chosen as the experimental fungus. The activation of the experimental fungus was obtained through that the experimental fungus were cultivated for 48 h at 30° C. The activated experimental fungus was matched to fungal suspension. Count and adjust the concentration using blood counting chamber. The moderate fungal suspension were added into RPMI1640 fluid nutrient medium to 0.5-2.5×10^3 cfμ/ml of final working concentration. 100 μl of above fungal suspension was added into the above 96-well plate with the hexadecyl tromethamine hydrochloride salt solution. Two parallel wells were set for each concentration gradient compound of each strain. Blank medium and blank medium with fungal solution were set as control simultaneously.
# as §2, with “tromethamine” for “tromethamine hydrochloride salt”
# as §2, with “phosphate” for “hydrochloride salt”, “µg/ml)” for “μg/ml)”
# (§3) 2. The Anti-Fungal Function Detection of the Hexadecyl Tromethamine Benzene Sulfonate Test Method: The hexadecyl tromethamine benzene sulfonate solution was semi-diluted to five concentration gradients (100 μg/ml, 50 μg/ml, 25 μg/ml, 12.5 μg/ml and 6.25 µg/ml) by RPMI1640 fluid nutrient medium. 100 μl of every gradient solution was added in the 96-well plate for standby application. Standard fungal strain and clinical drug-resistant fungal strain in table 2 were chosen as the experimental fungus. The activation of the experimental fungus was obtained through that the experimental fungus were cultivated for 48 h at 30° C. The activated experimental fungus was matched to fungal suspension. […]
# [3] = system: Candida tropicalis 191529; assay: as above; conditions: Clinical drug-resistant fungal strain Candida tropicalis 191529, incubated for 35 and 24 h, read-out: Minimum Inhibitory Concentration, MIC
# Method: as §2
# as §2, with “tromethamine” for “tromethamine hydrochloride salt”
# as §2, with “phosphate” for “hydrochloride salt”, “µg/ml)” for “μg/ml)”
# as §3
# Candida krusei 185429 = assay: as above; conditions: Pichia kudriavzevii, Standard fungal strain Candida krusei 185429, incubated for 35 and 24 h, read-out: Minimum Inhibitory Concentration, MIC
# Method: as §2
# as §2, with “tromethamine” for “tromethamine hydrochloride salt”
# as §2, with “phosphate” for “hydrochloride salt”, “µg/ml)” for “μg/ml)”
# as §3
# [4] = system: Candida tropicalis 191327; assay: as above; conditions: Clinical drug-resistant fungal strain Candida tropicalis 191327, incubated for 35 and 24 h, read-out: Minimum Inhibitory Concentration, MIC
# Method: as §2
# as §2, with “tromethamine” for “tromethamine hydrochloride salt”
# as §2, with “phosphate” for “hydrochloride salt”, “µg/ml)” for “μg/ml)”
# as §3
# [5] = system: Candida parapsilosis 191344; assay: as above; conditions: for MIC: Lodderomyces parapsilosis, 191344, Clinical drug-resistant fungal strain Candida parapsilosis 191344, incubated for 35 and 24 h, read-out: Minimum Inhibitory Concentration, MIC
# Method: as §2
# as §2, with “tromethamine” for “tromethamine hydrochloride salt”
# as §2, with “phosphate” for “hydrochloride salt”, “µg/ml)” for “μg/ml)”
# as §3
# Candida glabrata 337348 = assay: as above; conditions: for MIC: Nakaseomyces glabratus, 337348, Standard fungal strain Candida glabrata 337348, incubated for 35 and 24 h, read-out: Minimum Inhibitory Concentration, MIC
# Method: as §2
# as §2, with “tromethamine” for “tromethamine hydrochloride salt”
# as §2, with “phosphate” for “hydrochloride salt”, “µg/ml)” for “μg/ml)”
# as §3
MIC [2] [µg/mL],MIC [3] [µg/mL],MIC (Candida krusei 185429) [µg/mL],MIC [4] [µg/mL],MIC [5] [µg/mL],MIC (Candida glabrata 337348) [µg/mL],SMILES,The inhibition ratio (%) (MKN-45; 2 μM),The inhibition ratio (%) (MKN-45; 20 μM),The inhibition ratio (%) ([1]; 2 μM),The inhibition ratio (%) ([1]; 20 μM),The inhibition ratio (%) (AGS; 2 μM),The inhibition ratio (%) (AGS; 20 μM),The inhibition ratio (%) (SGC-7901; 2 μM),The inhibition ratio (%) (SGC-7901; 20 μM),also measured
25,25,50,25,25,25,"CCCCCCCCCCCCCCCCNC(CO)(CO)CO.Cl [2-(hexadecylamino)-2-(hydroxymethyl) propane-1,3-diol hydrochloride]",31,99,72,101,42,99,21,100,"inhibitory effect (level reached on the inhibition curve, FIG. 3) ([1]; rises rapidly when the logarithmic value of compound concentration reached 3 nM): 100%"
25,50,100,50,50,25,CCCCCCCCCCCCCCCCNC(CO)(CO)CO.O=S(=O)(O)c1ccccc1 [hexadecyl tromethamine benzene sulfonate],34,100,62,96,38,95,23,98,–
–,–,–,–,–,–,CCCCCCCCCCCCCCCCNC(CO)(CO)CO [hexadecyl tromethamine phosphate],–,–,–,–,–,–,–,–,"The inhibition ratio (%) (MKN-45; 2 μM, phosphate): 29%; The inhibition ratio (%) (MKN-45; 20 μM, phosphate): 97%; The inhibition ratio (%) ([1]; 2 μM, phosphate): 68%; The inhibition ratio (%) ([1]; 20 μM, phosphate): 99%; The inhibition ratio (%) (AGS; 2 μM, phosphate): 44%; The inhibition ratio (%) (AGS; 20 μM, phosphate): 100%; The inhibition ratio (%) (SGC-7901; 2 μM, phosphate): 25%; The inhibition ratio (%) (SGC-7901; 20 μM, phosphate): 101%; Minimum Inhibitory Concentration, MIC ([5]; Clinical drug-resistant fungal strain Candida parapsilosis 191344, incubated for 35 and 24 h, phosphate): 50 µg/mL; Minimum Inhibitory Concentration, MIC (Candida glabrata 337348; Standard fungal strain Candida glabrata 337348, incubated for 35 and 24 h, phosphate): 50 µg/mL"
25,25,50,25,25,25,CCCCCCCCCCCCCCCCNC(CO)(CO)CO [hexadecyl tromethamine],32,98,72,100,43,99,24,102,–
